Measurements reported in patent publication US12384772B2, “Inhibitors” (VIVORYON THERAPEUTICS N.V., priority 2017, dated 2025).

Molecular target: Glutaminyl cyclase (QC) (Homo sapiens (Human), UniProt Q16769)
Test: Glutaminyl cyclase assay, determination of IC50 values and calculation of Ki values (H-Gln-AMC substrate, pGAP auxiliary enzyme; pH 8.0 or pH 6.0)
Format: biochemical
Settings: pH 6, read-out: hQC Ki [μM] pH6
Experimental: 10 mM compound stock solutions were prepared in DMSO. For IC50 determination compound stocks were serially diluted (1:3) in DMSO.
All measurements were performed with an EnSpire Perkin Elmer multimode reader using glutaminyl-7-amino-4-methylcoumarin (H-Gin-AMC) as substrate and recombinant pyroglutamyl aminopeptidase (pGAP) as auxiliary enzyme. Reactions were carried out at ambient temperature in black 96-well half area microplates. Each sample consisted of 1 μl test compound solution or solvent (DMSO) and 49 μl QC appropriately diluted in assay buffer (50 mM Tris/HCl, pH 8.0 or 50 mM MES buffer, pH=6.0). After a 10 min preincubation at ambient temperature the enzyme reaction was started by adding 50 μl of Gln-AMC-substrate/pGAP mixture in assay buffer. Final substrate concentrations were 50 and 200 μM for measurement at pH 8.0 or 6.0, respectively. Release of flourogenic AMC were recorded at excitation/emission wavelengths of 380/460 nm. Initial velocity of the enzyme reaction was calculated by linear regression of the first 10 data points using the Enspire Manager software. Final evaluation and calculation of IC50s were performed using GraphPad Prism software.
Ki-values were calculated according to the following formula: Ki=IC50/(1+[S]/Km), where: […]

Chain of Glutaminyl cyclase (QC) (Q16769 29-361): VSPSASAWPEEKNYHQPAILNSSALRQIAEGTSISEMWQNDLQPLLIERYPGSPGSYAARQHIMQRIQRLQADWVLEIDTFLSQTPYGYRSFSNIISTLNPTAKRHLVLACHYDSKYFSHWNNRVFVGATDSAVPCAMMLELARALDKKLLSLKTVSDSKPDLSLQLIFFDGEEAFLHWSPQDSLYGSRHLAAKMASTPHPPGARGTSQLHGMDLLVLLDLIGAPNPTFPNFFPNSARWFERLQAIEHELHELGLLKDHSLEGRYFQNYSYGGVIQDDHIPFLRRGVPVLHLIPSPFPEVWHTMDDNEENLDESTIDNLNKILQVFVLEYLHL

For `Cn1cnnc1-c1ccc(Nc2ccccc2-c2ccc(F)cc2)cc1` [Comp 826, 4′-fluoro-N-[4-(4-methyl-4H-1,2,4-triazol-3-yl)phenyl]-[1,1‘-biphenyl]-2-amine], which Ki is on record?
The Ki was 1.44 µM.

`Cn1cnnc1-c1ccc(Nc2ccccc2-c2ccc(Oc3ccccc3)cc2)cc1` [D6, 4-(4-methyl-4H-1,2,4-triazol-3-yl)-N-[2-(4-phenoxyphenyl)phenyl]aniline] was tested. Which Ki did it give?
The Ki was 1.33 µM.

For `Fc1ccc(-c2c(F)cccc2NCc2ccc3[nH]cnc3c2)cc1` [O24, N-(1H-1,3-benzodiazol-5-ylmethyl)-3-fluoro-2-(4-fluorophenyl)aniline], which Ki is on record?
The Ki was 5.81 µM.

How did the Ki turn out when `Nc1nnc(-c2ccc(Nc3ccccc3-c3ccc(Oc4ccccc4)cc3)cc2)s1` [C10, 5-(4-{[2-(4-phenoxyphenyl)phenyl]amino}phenyl)-1,3,4-thiadiazol-2-amine] was run?
The Ki was 4.37 µM.

How did the Ki turn out when `COc1ccc(-c2ccncc2NCc2ccc3[nH]cnc3c2)cc1` [O7, N-(1H-1,3-benzodiazol-5-ylmethyl)-4-(4-methoxyphenyl)pyridin-3-amine] was run?
Its Ki is 11.1 µM.

`COc1ccc(-c2ccccc2NCc2ccc3[nH]cnc3c2)cc1` [O3, N-(1H-1,3-benzodiazol-5-ylmethyl)-2-(4-methoxyphenyl)aniline] was tested. Which Ki did it give?
Its Ki is 1.44 µM.

Which Ki does the source give for `CC(C)Oc1ccc(-c2ccccc2NCc2ccc3[nH]cnc3c2)cc1` [O19, N-(1H-1,3-benzodiazol-5-ylmethyl)-2-[4-(propan-2-yloxy)phenyl]aniline] here?
The Ki was 1.53 µM.

With `c1ccc(Oc2ccc(-c3ccccc3NCc3ccc4[nH]cnc4c3)cc2)cc1` [O16, N-(1H-1,3-benzodiazol-5-ylmethyl)-2-(4-phenoxyphenyl)aniline] as the compound, how does the Ki read?
Its Ki is 4.34 µM.

Which Ki does the source give for `c1ccc(-c2ccc(OC3CCCCC3)cc2)c(NCc2ccc3[nH]cnc3c2)c1` [O17, N-(1H-1,3-benzodiazol-5-ylmethyl)-2-[4-(cyclohexyloxy)phenyl]aniline] here?
Its Ki is 2.03 µM.

For `CC(C)Oc1ccc(-c2ccccc2Nc2ccc(-c3nnc(N)s3)cc2)cc1` [C12, 5-[4-({2-[4-{propan-2-yloxy)phenyl]phenyl}amino)phenyl]-1,3,4-thiadiazol-2-amine], which Ki is on record?
Its Ki is 1.51 µM.

With `Cn1cnnc1-c1ccc(Nc2cccnc2-c2ccc(F)cc2)cc1` [Comp 852, 2-(4-fluorophenyl)-N-[4-(4-methyl-4H-1,2,4-triazol-3-yl)phenyl]pyridin-3-amine] as the compound, how does the Ki read?
The Ki was 2.69 µM.

With `COc1ccc(-c2cnccc2NCc2ccc3[nH]cnc3c2)cc1` [O6, N-(1H-1,3-benzodiazol-5-ylmethyl)-3-(4-methoxyphenyl)pyridin-4-amine] as the compound, how does the Ki read?
The Ki was 15.1 µM.

`Fc1ccc(-c2cccnc2NCc2ccc3[nH]cnc3c2)cc1` [Comp 1234, N-(1H-1,3-benzodiazol-5-ylmethyl)-3-(4-fluorophenyl)pyridin-2-amine] was tested. Which Ki did it give?
Its Ki is 58.8 µM.

Which Ki does the source give for `Cn1cnnc1C1CCN(S(=O)(=O)c2ccc(F)cc2)CC1` [N1, 1-(4-fluorobenzenesulfonyl)-4-(4-methyl-4H-1,2,4-triazol-3-yl)piperidine] here?
The Ki was 3.05 µM.

With `Nc1nnc(SCCNc2ccccc2-c2ccc(F)cc2)s1` [Comp 94, 5-{[2-({4′-fluoro-[1,1′-biphenyl]-2-yl}amino)ethyl]sulfanyl}-1,3,4-thiadiazol-2-amine] as the compound, how does the Ki read?
Its Ki is 2.97 µM.

How did the Ki turn out when `Nc1ncc(C2CCN(S(=O)(=O)c3ccc(F)cc3)CC2)s1` [M1, 5-[1-(4-fluorobenzenesulfonyl)piperidin-4-yl]-1,3-thiazol-2-amine] was run?
Its Ki is 1.32 µM.

Same assay, conditions: pH 8, read-out: hQC Ki [μM] pH8

How did the Ki turn out when `Cn1cnnc1-c1ccc(Nc2ccccc2-c2ccc(F)cc2)cc1` [Comp 826, 4′-fluoro-N-[4-(4-methyl-4H-1,2,4-triazol-3-yl)phenyl]-[1,1‘-biphenyl]-2-amine] was run?
Its Ki is 1.74 µM.

Which Ki does the source give for `Cn1cnnc1-c1ccc(Nc2ccccc2-c2ccc(Oc3ccccc3)cc2)cc1` [D6, 4-(4-methyl-4H-1,2,4-triazol-3-yl)-N-[2-(4-phenoxyphenyl)phenyl]aniline] here?
Its Ki is 1.81 µM.

How did the Ki turn out when `Fc1ccc(-c2c(F)cccc2NCc2ccc3[nH]cnc3c2)cc1` [O24, N-(1H-1,3-benzodiazol-5-ylmethyl)-3-fluoro-2-(4-fluorophenyl)aniline] was run?
Its Ki is 9.41 µM.

With `Nc1nnc(-c2ccc(Nc3ccccc3-c3ccc(Oc4ccccc4)cc3)cc2)s1` [C10, 5-(4-{[2-(4-phenoxyphenyl)phenyl]amino}phenyl)-1,3,4-thiadiazol-2-amine] as the compound, how does the Ki read?
The Ki was 2.23 µM.

With `COc1ccc(-c2ccncc2NCc2ccc3[nH]cnc3c2)cc1` [O7, N-(1H-1,3-benzodiazol-5-ylmethyl)-4-(4-methoxyphenyl)pyridin-3-amine] as the compound, how does the Ki read?
The Ki was 4.24 µM.

For `COc1ccc(-c2ccccc2NCc2ccc3[nH]cnc3c2)cc1` [O3, N-(1H-1,3-benzodiazol-5-ylmethyl)-2-(4-methoxyphenyl)aniline], which Ki is on record?
The Ki was 1.65 µM.

How did the Ki turn out when `CC(C)Oc1ccc(-c2ccccc2NCc2ccc3[nH]cnc3c2)cc1` [O19, N-(1H-1,3-benzodiazol-5-ylmethyl)-2-[4-(propan-2-yloxy)phenyl]aniline] was run?
The Ki was 3.39 µM.

`c1ccc(Oc2ccc(-c3ccccc3NCc3ccc4[nH]cnc4c3)cc2)cc1` [O16, N-(1H-1,3-benzodiazol-5-ylmethyl)-2-(4-phenoxyphenyl)aniline] was tested. Which Ki did it give?
Its Ki is 2.11 µM.

How did the Ki turn out when `c1ccc(-c2ccc(OC3CCCCC3)cc2)c(NCc2ccc3[nH]cnc3c2)c1` [O17, N-(1H-1,3-benzodiazol-5-ylmethyl)-2-[4-(cyclohexyloxy)phenyl]aniline] was run?
Its Ki is 4.17 µM.

`CC(C)Oc1ccc(-c2ccccc2Nc2ccc(-c3nnc(N)s3)cc2)cc1` [C12, 5-[4-({2-[4-{propan-2-yloxy)phenyl]phenyl}amino)phenyl]-1,3,4-thiadiazol-2-amine] was tested. Which Ki did it give?
Its Ki is 3.27 µM.

For `Cn1cnnc1-c1ccc(Nc2cccnc2-c2ccc(F)cc2)cc1` [Comp 852, 2-(4-fluorophenyl)-N-[4-(4-methyl-4H-1,2,4-triazol-3-yl)phenyl]pyridin-3-amine], which Ki is on record?
Its Ki is 5.05 µM.

How did the Ki turn out when `COc1ccc(-c2cnccc2NCc2ccc3[nH]cnc3c2)cc1` [O6, N-(1H-1,3-benzodiazol-5-ylmethyl)-3-(4-methoxyphenyl)pyridin-4-amine] was run?
Its Ki is 10.8 µM.

How did the Ki turn out when `Fc1ccc(-c2cccnc2NCc2ccc3[nH]cnc3c2)cc1` [Comp 1234, N-(1H-1,3-benzodiazol-5-ylmethyl)-3-(4-fluorophenyl)pyridin-2-amine] was run?
The Ki was 12.3 µM.

Which Ki does the source give for `Cn1cnnc1C1CCN(S(=O)(=O)c2ccc(F)cc2)CC1` [N1, 1-(4-fluorobenzenesulfonyl)-4-(4-methyl-4H-1,2,4-triazol-3-yl)piperidine] here?
The Ki was 3.3 µM.

How did the Ki turn out when `Nc1nnc(SCCNc2ccccc2-c2ccc(F)cc2)s1` [Comp 94, 5-{[2-({4′-fluoro-[1,1′-biphenyl]-2-yl}amino)ethyl]sulfanyl}-1,3,4-thiadiazol-2-amine] was run?
Its Ki is 11.5 µM.

Which Ki does the source give for `Nc1ncc(C2CCN(S(=O)(=O)c3ccc(F)cc3)CC2)s1` [M1, 5-[1-(4-fluorobenzenesulfonyl)piperidin-4-yl]-1,3-thiazol-2-amine] here?
Its Ki is 1.7 µM.
